# Measurements reported in publication PMC3923778 (PLoS Currents, 2014).
# “Also recorded” adds a separate entry of the source.
# Experiments:
# [1] = tested on: disease-relevant genes; assay: Taqman-qPCR of disease-relevant genes; type: in vivo, mouse; conditions: chronic administration; 13 weeks of age; lower dose group study
# Procedure: Total RNA was extracted with the mini-RNA kit accordingly to manufacturer instructions (Qiagen). Reverse transcription (RT) was performed using MMLV superscript reverse transcriptase (Invitrogen) and random hexamers (Operon) and all Taqman-qPCR reactions were performed using the Chromo4 Real-Time PCR Detector (BioRad) as described. Expression level of the gene-of-interest was normalised to the geometric mean of three endogenous housekeeping genes (Primer Design) as described. […]
# [2] = molecular target: T1, human choline transporter (Homo sapiens, UniProt Q9GZV3); assay: Cerep diversity panel screen at 10 µM; type: binding
# T1 construct: Cerep (contract laboratory)
# Procedure: (§1) Studies were conducted at Cerep (France)
# [3] = molecular target: T2, NK3 receptor (Homo sapiens, UniProt P29371); assay: Cerep diversity panel screen at 10 µM; type: binding
# T2 construct: Cerep (contract laboratory)
# Procedure: as §1
# [4] = tested on: α2-adrenergic receptor; assay: Cerep diversity panel screen at 10 µM; type: binding
# Procedure: as §1
# [5] = tested on: site 2 of the Na2+-channel; assay: Cerep diversity panel screen at 10 µM; type: binding
# Procedure: as §1
# [6] = Microdialysis PK: SCH-51866 in striatal extracellular dialysate; type: in vivo, mouse; conditions: single oral dose, male R6/2, 7-8 weeks
# Procedure: Microdialysis PK/PD studies were conducted at Brains Online, Inc. (San Francisco, CA, USA) Male R6/2 (CBA/C57Bl/6 strain, CAG 120) mice aged 7-8 weeks (20 - 30 g; The Jackson Laboratory, USA) were used for the experiments. The animals were group housed in plastic cages (3-4 animals / cage) and had access to food and water ad libitum. Experiments were conducted in accordance with the declarations of Helsinki and were approved by the Institutional Animal Care and Use Committee of the University of California, San-Francisco. […] Mice were anesthetized using isoflurane (2%, 800 mL/min O2). Bupivacain/epinephrine was used for local anesthesia. Carprophen was used peri-/post-operative as analgesia. The animals were placed in a stereotaxic frame (Kopf instruments, USA), and microdialysis probes were inserted into the striatum. […] After surgery animals were kept individually in cages and provided food and water ad libitum. Animals were fasted the night before the experiment. Experiments were performed one day after surgery. […] Treatment effects were evaluated among different drug concentrations and also compared to baseline, using two-way ANOVA for repeated measurements followed by Student-Newman-Keuls post-hoc test. […] Pharmacodynamic parameters were calculated using Phoenix™ WinNonlin® Pro Node initial (Pharsight Corporation, Mountain View, CA, USA).
# [7] = tested on: R6/2 mice; assay: Rotarod; type: in vivo, mouse; conditions: BID, ANOVA
# Procedure: Motor function testing including open field and rear climbing tests were commenced at 4 weeks of age and continued at weeks 6, 8 and 12, for grip strength test at age weeks 4 and 12 and for rotarod at age weeks 4, 6 and 8. Compound treatment was started at 4 weeks of age after the baseline behavioral tests.
# Mice were tested at age weeks 4, 6 and 8 over 3 consecutive days (Wed, Thu, Fri). Each daily session included a training trial of 5 min at 4 RPM on the rotarod apparatus (AccuScan Instruments, Columbus, USA). One hour later, the animals were tested for 3 consecutive accelerating trials of 6 min with the speed changing from 0 to 40 RPM over 360 seconds and an inter-trial interval at least 30 min. The latency to fall from the rod was recorded. Mice remaining on the rod for more than 360 s were removed and their time scored as 360 sec.
# All values are presented as mean ± Standard Error of Mean (SEM), and differences are considered to be statistically significant at the p < 0.05 level. Statistical analysis was performed using StatsDirect statistical software. Differences between group means were analyzed by 1-way-ANOVA followed by Dunnett’s test (comparison to the control (=vehicle treated TG mice) group). The acquisition of the Cued two-choice swim test was analyzed using Fisher’s exact test.
# [8] = tested on: aggregated HTT; assay: Seprion ligand based ELISA of aggregate load; type: in vivo, mouse; conditions: chronic administration; 13 weeks of age; lower dose group study
# Description: Aggregates were captured in Seprion ligand coated plates (Microsens) and detected using the S830 sheep polyclonal or MW8 mouse monoclonal antibodies as described.
# T1 sequence (Q9GZV3 whole entry): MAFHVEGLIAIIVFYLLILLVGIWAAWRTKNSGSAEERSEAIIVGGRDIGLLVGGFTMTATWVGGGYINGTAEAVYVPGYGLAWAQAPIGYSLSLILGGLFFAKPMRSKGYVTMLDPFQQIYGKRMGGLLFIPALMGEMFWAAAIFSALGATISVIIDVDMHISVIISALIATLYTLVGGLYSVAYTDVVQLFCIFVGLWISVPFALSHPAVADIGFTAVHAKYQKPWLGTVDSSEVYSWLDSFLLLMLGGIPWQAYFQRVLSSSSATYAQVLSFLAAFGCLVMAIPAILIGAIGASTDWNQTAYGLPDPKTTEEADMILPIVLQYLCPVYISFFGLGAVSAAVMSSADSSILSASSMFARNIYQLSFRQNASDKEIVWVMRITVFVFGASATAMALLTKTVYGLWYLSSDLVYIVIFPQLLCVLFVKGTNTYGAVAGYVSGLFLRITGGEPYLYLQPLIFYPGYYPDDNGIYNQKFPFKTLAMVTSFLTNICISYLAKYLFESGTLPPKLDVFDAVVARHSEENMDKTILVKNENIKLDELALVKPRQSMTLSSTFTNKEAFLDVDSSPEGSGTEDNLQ
# T2 sequence (P29371 whole entry, species assumed): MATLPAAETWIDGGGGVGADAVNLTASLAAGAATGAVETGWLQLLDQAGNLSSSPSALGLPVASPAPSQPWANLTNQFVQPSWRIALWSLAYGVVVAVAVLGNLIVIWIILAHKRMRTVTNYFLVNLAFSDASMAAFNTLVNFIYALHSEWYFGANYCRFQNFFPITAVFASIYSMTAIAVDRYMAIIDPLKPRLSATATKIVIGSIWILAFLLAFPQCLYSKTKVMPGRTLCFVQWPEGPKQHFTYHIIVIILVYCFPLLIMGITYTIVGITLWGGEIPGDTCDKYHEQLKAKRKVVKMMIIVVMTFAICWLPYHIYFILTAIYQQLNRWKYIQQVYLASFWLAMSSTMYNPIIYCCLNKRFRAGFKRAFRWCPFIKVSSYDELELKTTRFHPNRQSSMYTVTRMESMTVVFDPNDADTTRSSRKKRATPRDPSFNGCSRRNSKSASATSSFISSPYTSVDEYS
smiles,measurement,setting,value
"CN1C(=O)c2nc(Cc3ccc(C(F)(F)F)cc3)[nH]c2N2C1=N[C@H]1CCC[C@H]12 [SCH-51866, (+)-cis-5,6a,7,8,9,9a-hexahydro-2-[4-[trifluro-methyl]phenylmethyl]-5-methyl-cylopent[4,5]imidazo [2,1-b]purin-4(3H)one]","expression of disease-relevant genes in striatum, cortex and cerebellum",[1],did not have a statistically significant effect; also recorded: no effects on the dysregulation of these genes
same,inhibition at 10 µM,[2],94%
same,inhibition at 10 µM,[3],57%
same,inhibition,[4],88%
same,inhibition,[5],66%
same,SCH-51866 in brain extracellular fluid,[6],dose-dependent accumulation
same,Rotarod: p vs Vehicle-treated R6/2 mice,"[7]; Age Week 4, 10 mg/kg p.o.",ANOVA: p=0.458
same,Rotarod: p vs Vehicle-treated R6/2 mice,"[7]; Age Week 4, 30 mg/kg p.o.",ANOVA: p=0.458
same,Rotarod: p vs Vehicle-treated R6/2 mice,"[7]; Age Week 6, 10 mg/kg p.o.",ANOVA: p=0.262
same,Rotarod: p vs Vehicle-treated R6/2 mice,"[7]; Age Week 6, 30 mg/kg p.o.",ANOVA: p=0.262
same,Rotarod: p vs Vehicle-treated R6/2 mice,"[7]; Age Week 8, 10 mg/kg p.o.",ANOVA: p=0.171
same,Rotarod: p vs Vehicle-treated R6/2 mice,"[7]; Age Week 8, 30 mg/kg p.o.",ANOVA: p=0.171
same,aggregate load in the cortex and hippocampus (Seprion ligand ELISA),[8],no effect
